Assay results: patent EP0670826B1, “FATTY ACID DERIVATIVES AND PHARMACEUTICAL COMPOSITIONS CONTAINING THEM” (YISSUM RESEARCH DEVELOPMENT COMPANY OF THE HEBREW …, priority 1992, dated 1994)

Experiments:
[1] = tested on: mice; assay: standard hot plate test (analgesia); type: in vivo; details: Mus musculus; in mice, intravenous injection in the tail vein; read-out: Analgesia ED=50
Method: Analgesia. The novel compounds were tested in the standard hot plate test.
Represenatative results are presented in Table I. The compounds were dissolved in a detergent (Emulphor): ethanol: saline (5:5:90) and administered by intravenous injection in the tail vein with an injection volume of 0.1 ml/10g of body weight.

[2] = tested on: Arachidonic Acid-Induced Paw Edema; assay: arachidonic acid-induced paw edema; type: in vivo; details: Mus musculus, po, compared to vehicle treated controls (peanut oil orally), N=5 mice/group, read-out: percent inhibition of paw edema; for inhibition at 0.05 mg/kg: dose 0.050 mg/kg; for inhibition at 0.1 mg/kg: dose 0.100 mg/kg; for inhibition at 0.25 mg/kg: dose 0.250 mg/kg
Method: The compounds were tested by a method reported by W. Calhoun et al., Agents and Actions, 21, 306-a309 (1987). Water was substituted for mercury as the displacement medium. PAF (1.0 µg) or arachidonic acid (1.0mg) dissolved in 50 µl of 5% ethanol in saline was injected s.c. into the plantar surface of the right hind paw of female mice (20-25g). The mice were under ether anesthesia during this procedure. The volume of the right foot was measured to the level of the lateral malleous by water displacement before treatment and 15 min after PAF injection or 30 min after arachidonic injection. The change in paw volume was calculated for each mouse.

[3] = tested on: emesia caused by an antieoplastic drug (cisplatin); assay: antiemetic activity against cisplatin-caused emesis; type: in vivo; details: Columbidae, sc, in pigeons, administered subcutaneously, read-out: Reduction of vomiting(50%)
Method: The compounds also tested in pigeons against emesia caused by an antieoplastic drug (cisplatin) according to the method described in Feigenbaum et al., Eur. J. Pharmacol. 169, 159-165 (1989). Representative results are presented in Table I. The compounds were dissolved as described above for the tests on analgesia, and administered subcutaneously. The injection volume was 1.0 ml/kg body weight.

[4] = tested on: mouse vas deferens; assay: electrically-evoked twitch response of the mouse vas deferens
Method: R.G. Pertwee, L.A. Stevenson, D.B. Elrick, R. Mechoulam, A.D. Corbett, Brit. J. Pharmacol. 105, 980 (1992). […] The structure of anandamide was established by mass spectrometry (MS) and nuclear magnetic resonance (NMR) spectroscopy. Additional data were obtained from the GC-MS and CID measurements of the trimethylsilyl (TMS) derivative of the material.
Fig. 2. Inhibition of vas deferens twitch response by natural anandamide. Vasa deferentia obtained from MFI mice were mounted in 4 ml siliconized organ baths under an initial tension of 0.5 g. The baths contained Mg++ -Free Krebs solution which was kept at 37 C and bubbled with 95% 02 and 5% CO2 . Tissues were stimulated supramaximally with 0.5 s trains of 3 pulses (train frequency 0.1 Hz: pulse duration 0.5 ms). Isometric contractions were recorded. Natural anandamide was dispersed in Tween 80 and saline (see ref. 12) and added in volumes of 40 µl.

[5] = molecular target: T1, cannabinoid receptor (Rattus norvegicus, UniProt P20272); assay: centrifugation radioligand binding assay with [3H]HU-243 on synaptosomal membranes
T1 construct: Synaptosomal membranes were prepared from rat whole brain-minus brainstem; from tissue; host or cells: rat whole brain minus brainstem, synaptosomal membranes (Sprague-Dawley males)
Method: To screen for endogenous cannabinoid compounds there were tested brain-derived fractions using a centrifugation radioligand binding assay. […] Particular attention was paid to the binding of [^3H]HU-243 to the siliconized polypropylene microfuge tubes in which the assay was conducted. Normally, about 15-20% of the added [^3H]HU-243 adheres to the microfuge tube, with the amount increasing slightly when unlabelled cannabinoid drugs displace the radioligand from the receptor.
Synaptosomal membranes were prepared from rat whole brain-minus brainstem (Sprague-Dawley males, 430-470g). [^3H]HU-243 (45-55 pM) was incubated with synaptosomal membranes (protein content 3-4 µg) for 90 min at 30°C with either the indicated concentrations of anandamide or the vehicle alone (fatty acid-free bovine serum albumin, final concentration-0.5 mg/ml). Bound and free radioligand were separated by centrifugation (see ref. 8 for full details of the assay). The data were normalized to 100% of specific binding, which was determined with 50 nM unlabeled HU-243. The amount of specific binding was 77-82% of the total radioactivity bound to the membranes. Data points (□, ▲) represent the average of triplicate determinations from two independent experiments.

[6] = tested on: intraocular pressure (I.O.P.); assay: antiglaucoma activity in stable glaucoma induced by chymotrypsin injection into the eye; type: in vivo; details: 0.01% aq. solution, rabbits
Method: The compounds were also tested for antiglaucoma activity in rabbits with stable glaucoma induced by δ-chymotrypsin injection into the eye as described in detail in R. Mechoulam et al., On the therapeutic possiblities of some cannabinoids in "The Therapeutic Potential of Marihuana" (eds S. Cohen. R.C. Stillman) Plenum Press, New York, 1975. pp. 35-48). The compounds were compared in activity to that of pilocarpine (a standard antiglaucoma drug) which at 0.01% aq. solution reduces the intraocular pressure (I.O.P.) and delays recovery to half time of the original I.O.P. about 30 hours. […] The compounds were dissolved as described for analgesia and further diluted with saline to obtain the required concentration.

T1 sequence (P20272 whole entry): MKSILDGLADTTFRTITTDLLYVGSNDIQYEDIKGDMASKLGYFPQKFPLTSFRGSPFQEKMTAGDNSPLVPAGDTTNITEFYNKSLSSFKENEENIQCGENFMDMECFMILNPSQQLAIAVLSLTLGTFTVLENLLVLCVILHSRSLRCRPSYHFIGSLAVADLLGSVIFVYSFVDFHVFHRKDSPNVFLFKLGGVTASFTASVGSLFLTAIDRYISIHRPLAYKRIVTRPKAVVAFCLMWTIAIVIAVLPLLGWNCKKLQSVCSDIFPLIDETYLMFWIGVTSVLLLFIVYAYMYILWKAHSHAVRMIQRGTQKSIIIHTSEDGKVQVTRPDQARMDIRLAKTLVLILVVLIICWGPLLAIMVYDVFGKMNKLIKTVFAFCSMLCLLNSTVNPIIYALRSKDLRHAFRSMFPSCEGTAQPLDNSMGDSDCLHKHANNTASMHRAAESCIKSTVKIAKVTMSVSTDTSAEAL

Row | SMILES | ED50 [1] | inhibition at 0.05 mg/kg [2] | inhibition at 0.1 mg/kg [2] | inhibition at 0.25 mg/kg [2] | ED50 [3] | also measured
1 | CC/C=C\C/C=C\C/C=C\C/C=C\C/C=C\C/C=C\CCC(=O)NCCO [4,7,10,13,16,19-docosahexaenylethanolamide] | 6.1 mg/kg | 52.4% | 66.8% | 72% | 4.8 mg/kg | 
2 | CCCCC/C=C\C/C=C\C/C=C\C/C=C\CCCC(=O)NCCO [Arachidonylethanolamide, 5,8,11,14-icosatetraenamide, (N,-2-hydroxyethyl)-(all-Z)] | 4.2 mg/kg | 74.2% | 98% | 100% | 2.5 mg/kg | inhibition at 0.01 mg/kg ([2]; dose 0.010 mg/kg): 56.2%; inhibition at 0.025 mg/kg ([2]; dose 0.025 mg/kg): 58.4%; inhibition of the twitch response ([4]; electrically-evoked, mouse vas deferens): concentration-dependent inhibition; reversal of the inhibition of the twitch response by naloxone ([4]; naloxone 300 nM): not reversed
3 | CCCCC/C=C\C/C=C\C/C=C\C/C=C\CCCC(=O)NCC(C)(C)O [arachidonoyl-β-dimethylethanolamide] |  |  |  |  |  | Ki ([5]; synthetic compounds, prepared and tested): 162 ± 34.1 nM
4 | CCCCC/C=C\C/C=C\C/C=C\C/C=C\CCCCCC(=O)NCCO [cis-7,10,13,16-docosatetraenoylethanolamide] |  |  |  |  |  | Ki ([5]; compounds isolated from the brain and synthesized): 34.4 ± 3.2 nM
5 | CC[C@@H]1C(=O)OC[C@@H]1Cc1cncn1C [pilocarpine] |  |  |  |  |  | delays recovery to half time of the original I.O.P. [6]: about 30 hours
